Results reported in publication PMC10787068, “Targeting the Mitochondrial Chaperone TRAP1 Alleviates Vascular Pathologies in Ischemic Retinopathy” (Advanced Science, 2023).
“Also recorded” adds a separate entry of the source.

How the values were obtained:
calpain = experiment: Calpain activity assay in MIO‐M1 cells; format: cell-based, human; settings: 3 µM gamitrinib or 0.5 µM MitoQ, 6 h under hypoxia, fluorogenic calpain substrate, n = 4
Procedure: (§1) Figure 5 TRAP1 inhibition induces mPTP opening, mitochondrial calcium discharge, and calpain‐1 activation. A) Visualization of cytoplasmic calcium. Fluo‐4 AM‐labeled MIO‐M1 cells were incubated with the TRAP1 inhibitors gamitrinib and MitoQ^[ [32], [41] ^] for 6 h or thapsigargin for 30 min under hypoxia, and analyzed by confocal microscopy. Scale bars, 10 µm and 2 µm (inset). […] MIO‐M1 cells were treated with a TRAP1 inhibitor, 3 µM gamitrinib or 0.5 µM MitoQ, for 6 h under hypoxia (n = 4). Enzyme activity was measured using a fluorogenic calpain substrate as described in the Experimental Section. C) Restored HIF1α expression upon CypD inhibition. MIO‐M1 cells were incubated with control or CypD‐targeting siRNAs, treated with the TRAP1 inhibitor MitoQ for 6 h under hypoxia, harvested, and analyzed by western blotting. Black and red arrows indicate pro and autolyzed forms of calpain‐1, respectively. […] MIO‐M1 cells were incubated with TRAP1‐targeting siRNAs for 48 h, exposed to hypoxia for 6 h, harvested, and analyzed by qPCR (n = 4). […] Cells were then analyzed by flow cytometry to detect cytoplasmic calcium. […] MIO‐M1 cells were incubated with TRAP1 inhibitors, 3 µM gamitrinib, and 0.5 µM MitoQ, and a cell‐permeable calcium chelator, BAPTA (10 µM), for 6 h as indicated under hypoxia and analyzed by western blotting. […] Data information: Data are expressed as mean ± SEM. […]

MIO‐M1 cells = experiment: Cytoplasmic calcium (Fluo‐4 AM) in MIO‐M1 cells; format: cell-based, human; settings: Fluo‐4 AM‐labeled MIO‐M1 cells under hypoxia; MitoQ 6 h, thapsigargin 30 min
Procedure: as §1

OIR mice = experiment: Oxygen‐induced retinopathy (OIR) mouse model, retinal vasculature (CD31 whole‐mount); format: in vivo
Procedure: Figure 7 Normalized retinal vascularization upon topical application of TRAP1 inhibitors. A) HIF1α degradation induced by TRAP1 inhibitors. MIO‐M1 cells were incubated with various concentrations of TRAP1 inhibitors as indicated for 6 h under hypoxia and analyzed by western blotting. B) Quantification of HIF1α protein degradation. The HIF1α band intensities in western blot data obtained as in (A) were analyzed and compared. The data are mean ± SEM from four independent experiments. C) Vascular structure of P17 OIR mouse retinas after topical drug application. Vehicle and 2 mM TRAP1 inhibitors were topically administered to the left and right eyes, respectively, of OIR mice at P12 once per day for 5 days. At P17, mice were sacrificed and analyzed by whole‐mount staining with an anti‐CD31 antibody and confocal microscopy. Scale bar, 500 µm. D) Quantification of avascular areas and neovascular tuft. Retinal images collected as in (C) were quantitatively analyzed (n = 5 mice/group). Data information: Data are expressed as mean ± SEM. Student t‐test, ^*** P < 0.001; ^* […].
To induce OIR (Figure 1A), mouse pups were exposed to 75% oxygen at postnatal day 7 (P7) until P12 together with their mothers in a hyperoxic chamber (InVivo Cabinet Model 15; Coy Laboratory; Grass Lake, MI, USA). Hyperoxia‐exposed pups were returned to room air at P12 with nursing mothers until P17. At P17, mice were sacrificed, and eyes were enucleated.
For intravitreal injection, MitoQ was injected into the vitreous cavity using a Nanoliter 2000 microinjector (World Precision Instruments; Sarasota, FL, USA) fitted with glass capillary pipettes under anesthesia. In total, 1 µl MitoQ (0.1 mg/ml) was delivered into the right eye of an OIR mouse once at P12. The contralateral eye was injected with vehicle (0.1% DMSO prepared in distilled water) as a control. […]
Fixed eyes were dissected to isolate retinas under a microscope. […] Fluorescence images were acquired using an Axio Zoom fluorescence microscope (Zeiss; Oberkochen, Germany) or a LSM780 or LSM980 confocal microscope (Zeiss). […]

## COC1=C(OC)C(=O)C(CCCCCCCCCC[P+](c2ccccc2)(c2ccccc2)c2ccccc2)=C(C)C1=O [MitoQ, mitoquinone]
calpain
  calpain enzyme activity: Calpain activation
MIO‐M1 cells
  cytoplasmic calcium: Modestly elevated
OIR mice; intravitreal injection, 1 µl of 0.1 mg/ml once at P12, analysed at P17, n = 5 mice/group
  avascular and neovascular tuft areas in OIR mice: significantly reduced; also recorded: dramatically reduced
OIR mice; topical, 2 mM once per day for 5 days from P12, analysed at P17, n = 5 mice/group
  avascular and neovascular tuft areas in OIR mice: reduced
OIR mice; topical, 10 μl of 1 mM three times daily from P12 to P17, n = 6 mice/group
  avascular and neovascular tuft areas in OIR mice: reduced; also recorded: potent activity
